Laboratory results: patent US20220289794A1, “SYNTHETIC ANTIMICROBIAL PEPTIDES” (priority 2019, published 2022)
Where two headings read alike, the source gives them in different places. Positions of bridges follow the written chain, without caps; N, C: chain ends. Residues, ends and D or L forms follow the SMILES beside them.

Legend:
[1] = system: Methicillin-resistant Staphylococcus aureus MRSA (ATCC BAA-1556); settings: ATCC BAA-1556
[2] = system: Klebsiella pneumoniae (KPC, ATCC BAA-1705); settings: ATCC BAA-1705
[3] = system: Escherichia coli (E. Coli, ATCC 25922); settings: ATCC 25922
[4] = system: Pseudomonas aeruginosa (PSA, ATCC 27883); settings: ATCC 27883
[5] = system: Klebsiella pneumoniae (ATCC BAA-1705); settings: ATCC BAA-1705
[6] = system: Pseudomonas aeruginosa (ATCC 27883); settings: ATCC 27883
[7] = system: Methicillin-resistant Staphylococcus aureus MRSA (ATCC BAA-1556); settings: ATCC BAA-1556; remark: listed apart in the source
[8] = system: Escherichia coli (ATCC 25922); settings: ATCC 25922
[9] = system: Methicillin-resistant Staphylococcus aureus MRSA (ATCC BAA-1556); type: cell-based
Method: (§1) All bacteria pathogens tested clinically reported multi-drug resistant strains. The antibacterial activity was tested against Gram-negative strains namely; Pseudomonas aeruginosa (PSA), Klebsiella pneumoniae (KPC), Escherichia coli (E. coli) and Gram-positive Methicillin-resistant Staphylococcus aureus (MRSA). The minimum inhibitory concentration (MIC) is the lowest concentration of the antibiotic that inhibits microbial growths. MIC is determined by visual inspection or use of spectrophotometer plate reader to determine media turbidity. On the other hand, the minimum bactericidal concentration (MBC) is the lowest concentration that kills […] of bacterial growth. Cytotoxicity of peptides in the hepatic cell line, human skin fibroblast cell line, heart/myocardium cells, and human lung fibroblast cells is shown in FIGS. 36-46). […] (IFX-315)-Au-NP with antibiotics are shown in FIGS. 49-58 when the gold nanoparticles are formed by the peptide followed by addition of the antibiotic. […] (IFX-301) with antibiotics (1:1 ratio) first and then used in the synthesis of Au-NP in antibacterial activities is shown in FIGS. 59-68.
(§2) The MBC is identified by determining the lowest concentration of antibacterial agent that reduces the viability (concentration of peptides necessary to achieve a bactericidal effect) of the initial bacterial inoculum by ≥99.9%.

[10] = system: Pseudomonas aeruginosa (ATCC 27883); type: cell-based; settings: ATCC 27883
Method: as §1, §2

[11] = system: Escherichia coli (ATCC 25922); type: cell-based
Method: as §1, §2

Compound | MRSA (ATCC BAA-1556) MIC [1] | Klebsiella pneumoniae (ATCC BAA-1705) MIC [2] | Escherichia coli (ATCC 25922) MIC [3] | Pseudomonas aeruginosa (ATCC 27883) MIC [4] | KPC (ATCC BAA-1705) MIC [5] | PSA (ATCC 27883 MIC) [6] | MRSA (ATCC BAA-1556) MIC [7] | E. coli (ATCC 25922) MIC [8] | MRSA (ATCC BAA-1556) MBC [9] | PSA (ATCC 27883) MBC [10] | E. coli (ATCC 25922) MBC [11]
N=C(N)NCCC[C@@H]1NC(=O)[C@H](CCCNC(=N)N)NC(=O)[C@H](CCCNC(=N)N)NC(=O)[C@H](CCCCN)NC(=O)[C@H](Cc2c[nH]c3ccccc23)NC(=O)[C@H](Cc2c[nH]c3ccccc23)NC(=O)[C@H](Cc2c[nH]c3ccccc23)NC(=O)[C@H](Cc2c[nH]c3ccccc23)NC(=O)[C@H](CCCNC(=N)N)NC(=O)[C@H](CCCNC(=N)N)NC1=O [[R4W5K] (IFX-315)] (cyclo(RRRRRWWWWK)) | 4 µg/mL | 32 µg/mL | 16 µg/mL | 16 µg/mL |  |  |  |  |  |  | 
N=C(N)NCCC[C@@H]1NC(=O)[C@H](CCCNC(=N)N)NC(=O)[C@H](CCCNC(=N)N)NC(=O)[C@H](CCCNC(=N)N)NC(=O)[C@@H](NC(=O)[C@H](Cc2c[nH]c3ccccc23)NC(=O)[C@H](Cc2c[nH]c3ccccc23)NC(=O)[C@H](Cc2c[nH]c3ccccc23)NC(=O)[C@@H](N)Cc2c[nH]c3ccccc23)CSSC[C@@H](C(=O)O)NC1=O [IFX-334] (H-WWWWCRRRRC-OH; disulfide 5-10) |  |  |  |  | 256 µg/mL | 256 µg/mL | 32 µg/mL | 32 µg/mL | 64 µg/mL | 256 µg/mL | 64 µg/mL
